Test results published in BindingDB's records for doi:10.1016/j.bmc.2005.01.048 (Pfizer, 2005).

Molecular target: T1, Renin (Homo sapiens, UniProt P00797)
T1 sequence (P00797 whole entry): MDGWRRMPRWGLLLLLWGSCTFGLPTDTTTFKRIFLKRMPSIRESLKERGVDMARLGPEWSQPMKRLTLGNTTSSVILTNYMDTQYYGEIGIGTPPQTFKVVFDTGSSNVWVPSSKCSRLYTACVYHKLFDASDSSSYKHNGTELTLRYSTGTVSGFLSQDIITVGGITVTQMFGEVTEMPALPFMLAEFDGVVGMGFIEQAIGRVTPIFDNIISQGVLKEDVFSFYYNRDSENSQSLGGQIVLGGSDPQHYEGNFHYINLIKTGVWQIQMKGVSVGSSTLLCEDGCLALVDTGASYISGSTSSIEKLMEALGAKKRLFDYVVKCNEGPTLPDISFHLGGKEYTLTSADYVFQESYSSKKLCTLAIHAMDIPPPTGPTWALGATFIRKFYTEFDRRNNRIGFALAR
Assay: In Vitro Renin IC50 Determinations (Tandem GFP FRET Assay)
Conditions: pH 7.4; 22 °C
Description: The renin assay utilized a tandem Green Flourescent Protein (tGFP) substrate that was hydrolyzed by human rennin. The tGFP substrate contained a nine amino acid (Ile-His-Pro-Phe-His-Leu-Val-Ile-His) recognition sequence for human renin flanked by two GPF proteins (W1B and Topaz). Human rennin cleaves the leucine-valine site of the substrate linker. Once cleaved, the emission ratio changes. The change was monitored by the ratio of 530 nm (topaz) over 475 nm (W1B) with the excitation set at 432 nm and the cutoff at 515 nm. The assay used a 384 well plate format that was read using a Gemini XS Fluorometric plate reader (Molecular Devices). Compounds were screened at a starting concentration of 10 uM and used a fourfold eleven-point dilution regiment.

| IC50 | Structure (SMILES) |
| --- | --- |
| 1020 nM | COc1ccccc1COCCCOc1ccc(N2CCNC[C@@H]2COCc2ccc(-c3ccccc3)cc2)cc1 [(2R)-1-(4-{3-[(2-methoxyphenyl)methoxy]propoxy}phenyl)-2-{[(4-phenylphenyl)methoxy]methyl}piperazine] |
| 0.3 nM | COc1ccccc1COCCCOc1ccc(N2C(=O)CNC[C@@H]2COc2ccc3c(c2)N(CCNC(C)=O)CCC3)cc1 |
| 180 nM | COc1ccccc1COCCCOc1ccc(N2CCNC[C@@H]2COc2ccc3ccccc3c2)cc1 [(2R)-1-(4-{3-[(2-methoxyphenyl)methoxy]propoxy}phenyl)-2-[(naphthalen-2-yloxy)methyl]piperazine] |
| 0.5 nM | COc1ccccc1COCCCOc1ccc(N2CCNC[C@@H]2COc2ccc3c(c2)N(CCNC(C)=O)CCC3)cc1 [N-[2-(7-{[(2R)-1-(4-{3-[(2-methoxyphenyl)methoxy]propoxy}phenyl)piperazin-2-yl]methoxy}-1,2,3,4-tetrahydroquinolin-1-yl)ethyl]acetamide] |
